Test results from ChEMBL document CHEMBL1201862, “PubChem BioAssay data set” (2004).
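Following 48 hours of exposure in 96-well plates, responses at five concentrations were used to interpolate endpoints linearly. The concentration for 50% growth inhibition is given as GI50.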 Calls of active or inactive are those of the source. Cut-off read from the data, not from the text of the source: active = GI50 up to about 1.1 µM and inactive = higher.

Assays:
Experiment in all cases: DTP human tumour cell line panel, 48 h
EKVX = test system: EKVX
SK-MEL-5 = test system: SK-MEL-5
SW-620 = test system: SW-620
SF-295 = test system: SF-295
IGROV-1 = test system: IGROV-1
U-251 = test system: U-251
SF-268 = test system: SF-268
CCRF-CEM = test system: CCRF-CEM
PC-3 = test system: PC-3
A549 = test system: A549
UACC-62 = test system: UACC-62
RPMI-8226 = test system: RPMI-8226
OVCAR-5 = test system: OVCAR-5
SR = test system: SR
SN12C = test system: SN12C
HCT-15 = test system: HCT-15
OVCAR-3 = test system: OVCAR-3
HOP-62 = test system: HOP-62
M14 = test system: M14
UO-31 = test system: UO-31
T47D = test system: T47D
RXF 393 = test system: RXF 393
HCC 2998 = test system: HCC 2998
MDA-MB-231 = test system: MDA-MB-231
KM12 = test system: KM12
OVCAR-8 = test system: OVCAR-8
NCI/ADR-RES = test system: NCI/ADR-RES
SNB-75 = test system: SNB-75
COLO 205 = test system: COLO 205
MOLT-4 = test system: MOLT-4
SK-MEL-28 = test system: SK-MEL-28
HCT-116 = test system: HCT-116
Malme-3M = test system: Malme-3M
786-0 = test system: 786-0
A498 = test system: A498
HT-29 = test system: HT-29
MDA-MB-435 = test system: MDA-MB-435
NCI-H23 = test system: NCI-H23
MCF7 = test system: MCF7
Hs-578T = test system: Hs-578T
OVCAR-4 = test system: OVCAR-4
SNB-19 = test system: SNB-19
NCI-H460 = test system: NCI-H460
CAKI-1 = test system: CAKI-1
BT-549 = test system: BT-549
ACHN = test system: ACHN
TK-10 = test system: TK-10
SK-OV-3 = test system: SK-OV-3
DU-145 = test system: DU-145
MDA-N = test system: MDA-N
NCI-H226 = test system: NCI-H226
UACC-257 = test system: UACC-257
HOP-92 = test system: HOP-92
SK-MEL-2 = test system: SK-MEL-2

Measured: GI50

Cn1c2c(c3ccccc31)CC(=O)N1CCCCC1C21OCCO1 (centres undefined)
> 100 µM: HCT-15
inactive: EKVX > 100 µM | SK-MEL-5 > 100 µM | SW-620 > 100 µM | SF-295 > 100 µM | IGROV-1 > 100 µM | U-251 > 100 µM | SF-268 > 100 µM | CCRF-CEM > 100 µM | PC-3 > 100 µM | A549 > 100 µM | UACC-62 > 100 µM | RPMI-8226 > 100 µM | OVCAR-5 > 100 µM | SR > 100 µM | SN12C > 100 µM | OVCAR-3 > 100 µM | HOP-62 > 100 µM | M14 > 100 µM | UO-31 > 100 µM | T47D > 100 µM | RXF 393 > 100 µM | HCC 2998 > 100 µM | MDA-MB-231 > 100 µM | KM12 > 100 µM | OVCAR-8 > 100 µM | NCI/ADR-RES > 100 µM | SNB-75 > 100 µM | COLO 205 > 100 µM | MOLT-4 > 100 µM | SK-MEL-28 > 100 µM | HCT-116 > 100 µM | Malme-3M > 100 µM | 786-0 > 100 µM | A498 > 100 µM | HT-29 > 100 µM | MDA-MB-435 > 100 µM | NCI-H23 > 100 µM | MCF7 > 100 µM | Hs-578T > 100 µM | OVCAR-4 > 100 µM | SNB-19 > 100 µM | NCI-H460 > 100 µM | CAKI-1 > 100 µM | BT-549 > 100 µM | ACHN > 100 µM | TK-10 > 100 µM | SK-OV-3 > 100 µM | DU-145 > 100 µM | MDA-N > 100 µM | NCI-H226 > 100 µM | UACC-257 > 100 µM | HOP-92 > 100 µM | SK-MEL-2 > 100 µM
